The assay addresses T1, hPRDM9 (amino acids 195-385) (Homo sapiens, UniProt Q9NQV7).
T1 construct: 1.25 nM hPRDM9 (amino acids 195-385)
T1 sequence (Q9NQV7 195-385): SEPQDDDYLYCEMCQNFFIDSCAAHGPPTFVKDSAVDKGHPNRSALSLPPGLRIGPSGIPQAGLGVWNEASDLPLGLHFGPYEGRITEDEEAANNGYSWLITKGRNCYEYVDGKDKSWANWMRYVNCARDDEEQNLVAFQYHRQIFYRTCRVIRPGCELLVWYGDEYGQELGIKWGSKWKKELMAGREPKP
Kind of assay: PRDM9 biochemical assay (radiometric, 3[H] methyl transfer from SAM to biotinylated histone H3 peptide). The following applies: 1 nM hPRDM9, 1 μM biotinylated H3(1-25)K4 peptide, 5 μM 3[H]-SAM, 55 μM un-labeled SAM, 25° C., 30 minutes. As for the experimental part: The PRDM9 biochemical assay was carried out using a radiometric format involving the transfer of ^3[H] methyl group from S-adenosyl methionine (SAM) to a biotinylated histone H3 peptide (H3(1-25)K4). 10 mM compounds in DMSO were diluted 20 fold in assay buffer (10 mM Tris-HCl, pH 8.5, 10 mM DTT, and 0.01% Triton X-100) before adding […] to a well in a 384 well polypropylene microplate plate and adding 8 μl of reaction mix (1.25 nM hPRDM9 (amino acids 195-385), 1.25 μM biotinylated H3 peptide in assay buffer). The ^3[H]-SAM and cold SAM stock solutions were diluted to 50 μM and 550 μM respectively in assay buffer before aliquoting 1 μl of 50 μM ^3[H]-SAM, 550 μM SAM into each well to initiate the reaction. The assay was performed at 25° C. at the final concentrations of 1 nM hPRDM9, 1 μM peptide, 5 μM ^3[H]-SAM, and 55 μM un-labeled SAM in assay buffer. The reaction was quenched after 30 minutes by adding 25 μl 7.5 M Guanidine-HCl. Quenched reactions were transferred to streptavidin coated Flashplates, diluted two fold in assay buffer, incubated for 1 hour, and read on a Perkin Elmer Topcount instrument. Compound activity was expressed relative to activity of 0.5% (v/v) DMSO treated samples and fit to a four parameter logistic equation to determine IC50 values.

pIC50: −log10 of the molar value.

A word on the pIC50: it is −log10 of the IC50, conventionally taken in molar units. Read a high pIC50 as a small IC50. `Cc1cc(N2CCC3C(Nc4nc(-c5cc(Cl)cc(Cl)c5)no4)CCC32)ccn1` (mixture of isomers) [Compound 27] gave a pIC50 of 4.44.

Regarding `Cc1cc(N[C@@H]2[C@@H](O)CN(c3nc(-c4cc(Cl)cc(Cl)c4)no3)[C@H]2C)ccn1` (racemic) [Compound 29], the pIC50 is 4.88.

In turn, `Cc1cc(N2C[C@H]3CCN(c4nc(-c5cc(Cl)cc(Cl)c5)no4)C[C@H]3C2)ccn1` (racemic) [Compound 36] gave a pIC50 of 4.56. This pIC50 is 0.32 log units lower than that of the compound before.

`Cc1cc(N[C@H]2CC[C@H](Nc3nc(-c4cc(Cl)cc(Cl)c4)no3)C2)ccn1` (racemic) [Compound 50] had a pIC50 of 4.79.

On to `Cc1cc(N2CC[C@@H]3CN(c4nc(-c5cc(Cl)cc(Cl)c5)no4)C[C@@H]3C2)ccn1` [Compound 1, 3-(3,5-dichlorophenyl)-5-((3aS,7aS)-5-(2-methylpyridin-4-yl)hexahydro-1H-pyrrolo[3,4-c]pyridin-2(3H)-yl)-1,2,4-oxadiazole], for which the pIC50 is 5.29.

In turn, `Cc1cc(N2CCC3(CCN(c4nc(-c5cc(Cl)cc(Cl)c5)no4)C3)C2)ccn1` (stereo not shown) [Compound 4] showed a pIC50 of 6.44.

In the case of `Cc1cc(N2CCC(C3CCCN(c4nc(-c5cc(Cl)cc(Cl)c5)no4)C3)CC2)ccn1` (stereo not shown) [Compound 6], the pIC50 was 4.95.

`Cc1cc(NC2CCCC(Nc3nc(-c4cc(Cl)cc(Cl)c4)no3)CC2)ccn1` (stereo not shown) [Compound 7] showed a pIC50 of 5.31.

`Cc1cc(N2CCC(F)(CNc3nc(-c4cc(Cl)cc(Cl)c4)no3)CC2)ccn1` [Compound 8] gave a pIC50 of 6.09.

`Cc1cc(NC(C)C2CCCN(c3nc(-c4cc(Cl)cc(Cl)c4)no3)C2)ccn1` (stereo not shown) [Compound 11] gave a pIC50 of 4.71.

With `Cc1cc(NC[C@H]2CCCN2c2nc(-c3cc(Cl)cc(Cl)c3)no2)ccn1` [Compound 12], the pIC50 was 4.38.

With `Cc1cc(N2CCC3(CC2)CCN(c2nc(-c4cc(Cl)cc(Cl)c4)no2)CC3)ccn1` [Compound 15], the pIC50 was 4.50.

Compound `Cc1cc(NCCCN(C)c2nc(-c3cc(Cl)cc(Cl)c3)no2)ccn1` [Compound 16] showed a pIC50 of 4.94. Against the preceding compound, the pIC50 is 0.44 log units higher.

The compound `Cc1cc(N2CCC3(CCN(c4nc(-c5cc(Cl)cc(Cl)c5)no4)CC3)C2)ccn1` [Compound 20] gave a pIC50 of 5.11.

`Cc1cc(N2CCC(CCNc3nc(-c4cc(Cl)cc(Cl)c4)no3)CC2)ccn1` [Compound 22] showed a pIC50 of 4.73. This pIC50 is 0.38 log units lower than that of the compound before.

The compound `CCC1(CNc2ccnc(C)c2)CCN(c2nc(-c3cc(Cl)cc(Cl)c3)no2)C1` (stereo not shown) [Compound 23] gave a pIC50 of 4.75.

Regarding `Cc1cc(N2CC3CC(Nc4nc(-c5cc(Cl)cc(Cl)c5)no4)CC3C2)ccn1` (stereo not shown) [Compound 24], the pIC50 is 5.27.

In turn, `Cc1cc(N2CCC3(CCC(=O)N(c4nc(-c5cc(Cl)cc(Cl)c5)no4)C3)CC2)ccn1` [Compound 28] showed a pIC50 of 7.65.

The compound `Cc1cc(NC2CCCC(Nc3nc(-c4cc(Cl)cc(Cl)c4)no3)C2)ccn1` (stereo not shown) [Compound 30] showed a pIC50 of 4.55.

In turn, `CCC1(CNc2nc(-c3cc(Cl)cc(Cl)c3)no2)CCN(c2ccnc(C)c2)CC1` [Compound 32] had a pIC50 of 5.66.

Compound `Cc1cc(N2CCC3(CCCC3Nc3nc(-c4cc(Cl)cc(Cl)c4)no3)CC2)ccn1` (stereo not shown) [Compound 33] gave a pIC50 of 5.82.

`Cc1cc(N2CCC3(CC2)CC3Nc2nc(-c3cc(Cl)cc(Cl)c3)no2)ccn1` (stereo not shown) [Compound 34]: the pIC50 is 5.66.

Turning to `Cc1cc(NCC2(O)CCN(c3nc(-c4cc(Cl)cc(Cl)c4)no3)C2)ccn1` (stereo not shown) [Compound 37], the pIC50 is 4.81.

Take `Cc1cc(N2CCC(CN(C)c3nc(-c4cc(Cl)cc(Cl)c4)no3)CC2)ccn1` [Compound 38]: the pIC50 was 6.80.

Turning to `Cc1cc(N2CCC3CN(c4nc(-c5cc(Cl)cc(Cl)c5)no4)CC32)ccn1` (stereo not shown) [Compound 39], the pIC50 is 4.91.

In turn, `Cc1cc(N2CCC3(CC2)CN(c2nc(-c4cc(Cl)cc(Cl)c4)no2)CCO3)ccn1` [Compound 40] gave a pIC50 of 7.10.

The compound `Cc1cc(N2CCC3(CCCN3c3nc(-c4cc(Cl)cc(Cl)c4)no3)C2)ccn1` (stereo not shown) [Compound 41] had a pIC50 of 5.41.

For the compound `Cc1cc(N2CCCC(Nc3nc(-c4cc(Cl)cc(Cl)c4)no3)CC2)ccn1` (stereo not shown) [Compound 42], the pIC50 is 4.45. Compared with the last compound, the pIC50 is 0.96 log units lower.

The compound `Cc1cc(NCC(F)CNc2nc(-c3cc(Cl)cc(Cl)c3)no2)ccn1` (stereo not shown) [Compound 43] gave a pIC50 of 4.88.

`Cc1cc(N2CC(C3CCCCN3c3nc(-c4cc(Cl)cc(Cl)c4)no3)C2)ccn1` (stereo not shown) [Compound 44] had a negative logarithm of the IC50 (pIC50) of 6.30.

`Cc1cc(N2CC3CN(c4nc(-c5cc(Cl)cc(Cl)c5)no4)CC3C2)ccn1` (stereo not shown) [Compound 45] had a pIC50 of 6.47. The pIC50 values of the last two compounds are within 0.2 log units of each other.

Compound `Cc1cc(NCC2CN(c3nc(-c4cc(Cl)cc(Cl)c4)no3)C2)ccn1` [Compound 49] showed a pIC50 of 4.40.

Consider `Cc1cc(N2CCC(N(c3nc(-c4cc(Cl)cc(Cl)c4)no3)C3CC3)CC2)ccn1` [Compound 51], for which the pIC50 was 5.14.

The compound `Cc1cc(N2CC(CCNc3nc(-c4cc(Cl)cc(Cl)c4)no3)C2)ccn1` [Compound 52] had a pIC50 of 4.53.

Turning to `Cc1cc(NC2CCC(Nc3nc(-c4cc(Cl)cc(Cl)c4)no3)CC2)ccn1` (stereo not shown) [Compound 54], the pIC50 was 4.58.

`Cc1cc(N2CCC(O)(CNc3nc(-c4cc(Cl)cc(Cl)c4)no3)C2)ccn1` (stereo not shown) [Compound 56] had a pIC50 of 4.55.

Turning to `Cc1cc(N(C)CCCCNc2nc(-c3cc(Cl)cc(Cl)c3)no2)ccn1` [Compound 58], the pIC50 was 4.62. The pIC50 values of the last two compounds are within 0.2 log units of each other.

In turn, `Cc1cc(NCC2(C)CCN(c3nc(-c4cc(Cl)cc(Cl)c4)no3)CC2)ccn1` [Compound 64] showed a pIC50 of 5.45.

In turn, `Cc1cc(N2CCC(C3CCN(c4nc(-c5cc(Cl)cc(Cl)c5)no4)CC3)CC2)ccn1` [Compound 65] gave a pIC50 of 5.21.

The compound `Cc1cc(NC2CCC3CN(c4nc(-c5cc(Cl)cc(Cl)c5)no4)CC3C2)ccn1` (stereo not shown) [Compound 66] had a pIC50 of 6.33.

Consider `Cc1cc(N2CCC(CNc3nc(-c4cc(Cl)cc(Cl)c4)no3)(c3ccccc3)CC2)ccn1` [Compound 67], for which the pIC50 is 5.35.

Compound `Cc1cc(N2CC3CCCN(c4nc(-c5cc(Cl)cc(Cl)c5)no4)C3C2)ccn1` (stereo not shown) [Compound 68] gave a pIC50 of 5.55. This pIC50 is 0.20 log units higher than that of the compound before.

The compound `Cc1cc(NC2CCC(O)(CNc3nc(-c4cc(Cl)cc(Cl)c4)no3)CC2)ccn1` (stereo not shown) [Compound 69] had a pIC50 of 5.15.

Consider `Cc1cc(N2CC3CCC(Nc4nc(-c5cc(Cl)cc(Cl)c5)no4)CC3C2)ccn1` (stereo not shown) [Compound 70], for which the pIC50 is 5.16.

`Cc1cc(N2CCC3CN(c4nc(-c5cc(Cl)cc(Cl)c5)no4)CCC32)ccn1` (stereo not shown) [Compound 71] showed a pIC50 of 4.56.

`Cc1cc(NC2CCCN(c3nc(-c4cc(Cl)cc(Cl)c4)no3)CC2)ccn1` (stereo not shown) [Compound 74] had a pIC50 of 5.95.

For `Cc1cc(N2CCC(C3CCN(c4nc(-c5cc(Cl)cc(Cl)c5)no4)C3)CC2)ccn1` (stereo not shown) [Compound 77], the pIC50 was 5.58.

Compound `Cc1cc(N2CCN(c3nc(-c4cc(Cl)cc(Cl)c4)no3)CC2)ccn1` [Compound 79] showed a pIC50 of 4.72.

The compound `Cc1cc(N2CCC3(CC2)CC3Nc2nc(-c3cc(Cl)cc(Cl)c3)no2)ccn1` (stereo not shown) [Compound 80] showed a pIC50 of 5.55. This pIC50 lies 0.83 log units higher than the previous one.

Turning to `Cc1cc(NC[C@H]2CCN(c3nc(-c4cc(Cl)cc(Cl)c4)no3)C2)ccn1` [Compound 81], the pIC50 was 4.88. This pIC50 is 0.67 log units lower than that of the compound before.

For the compound `COc1cc(OC)cc(-c2nc(N3CCCC4(CCN(c5ccnc(C)c5)CC4)C3)no2)c1` [Compound 85, 5-(3,5-dimethoxyphenyl)-3-(9-(2-methylpyridin-4-yl)-2,9-diazaspiro[5.5]undecan-2-yl)-1,2,4-oxadiazole], the pIC50 is 7.10. This pIC50 lies 2.22 log units higher than the previous one.

Take `COc1cc(Cl)cc(-c2nc(N3CCCC4(CCN(c5ccnc(C)c5)CC4)C3)no2)c1` [Compound 86]: the pIC50 was 6.55.

`COc1cccc(-c2nc(N3CCCC4(CCN(c5ccnc(C)c5)CC4)C3)no2)c1` [Compound 87]: the negative logarithm of the IC50 (pIC50) is 6.33.

`Cc1cc(N2CCC3(CCCN(c4noc(-c5cccc(Cl)c5)n4)C3)CC2)ccn1` [Compound 88] showed a pIC50 of 7.22. This pIC50 is 0.89 log units higher than that of the compound before.

Turning to `CCN1CCN(c2noc(-c3cc(OC)cc(OC)c3)n2)CC12CCN(c1ccnc(C)c1)CC2` [Compound 89], the pIC50 is 7.10.

`COc1cc(OC)cc(-c2nc(N3CCN(C)C4(CCN(c5ccnc(C)c5)CC4)C3)no2)c1` [Compound 90] showed a pIC50 of 6.93. The pIC50 values of the last two compounds are within 0.2 log units of each other.

With `COc1cc(OC(F)(F)F)cc(-c2nc(N3CCCC4(CCN(c5ccnc(C)c5)CC4)C3)no2)c1` [Compound 91, 5-(3-methoxy-5-(trifluoromethoxy)phenyl)-3-(9-(2-methylpyridin-4-yl)-2,9-diazaspiro[5.5]undecan-2-yl)-1,2,4-oxadiazole], the pIC50 was 6.82.

Turning to `Cc1cc(N2CCC3(CCCN(c4noc(-c5cc(OC(F)F)cc(OC(F)F)c5)n4)C3)CC2)ccn1` [Compound 92], the pIC50 was 7.16.

The values are drawn from US20190374526A1, “Substituted Heterocyclic Compounds as Inhibitors of PRDM9” (Merck Sharp & Dohme Corp., priority 2018, published 2019).
